According to patent US11376233B2 (AJOU UNIVERSITY INDUSTRY-ACADEMIC COOPERATION FOUNDATION, priority 2017, dated 2022):

How the values were obtained:
platelet aggregation = conditions: cited from earlier work
arterial thrombosis = conditions: mouse vascular endothelial injury; rat polyethylene tube; cited from earlier work
catalase and SOD2 [1] = experiment: mRNA expression of antioxidant enzymes by quantitative real-time PCR in H2O2-treated auditory cells; type: cell-based; conditions: pre-treated 1, 10, 25 and 50 μM for 1 hour, 250 μM H2O2 for 24 hours
Method: (§1) The mRNA expression was determined by quantitative real-time PCR after extraction of total RNA and synthesis of cDNA. Protein expression was observed by extracting total protein with RIPA buffer, separating proteins in the order of size by SDS-PAGE and then attaching catalase (catalase, Abcam, ab1877, Cambridge, UK)) and SOD2 (superoxide dismutase 2, Santa Cruz, Calif., USA) thereto.

catalase and SOD2 [2] = experiment: Tissue immunohistostaining of cochlea (spiral ganglia, auditory hair cells) in noise-induced hearing loss animal model; type: in vivo, Balb/c mice; conditions: immunohistochemistry, spiral ganglia (apex, middle, base) and auditory hair cells in cochlea; pretreated 50 mg/kg
Method: Confocal Laser Scanning Microscopes and immunostaining were performed for the morphological analysis of spiral ganglia and hair cells located in the organ of Corti in the cochlea in noise-induced hearing loss animal model of Example 1. […] The animal tissues were immobilized and embedded with paraffin to obtain tissue sections. Anti-oxidation-related protein antibodies were primarily attached to the tissue sections, fluorescent antibodies were secondarily attached thereto, and immunohistochemistry was performed to analyze the expression behavior of the anti-oxidation-related proteins. The antibodies were subjected to immunohistochemistry with the antioxidant factors, catalase (Abcam, ab1877, Cambridge, UK), SOD2 (Santa Cruz, Calif., USA), and DAPI (Invitrogen, Carlsbad, Calif.).

catalase and SOD2 [3] = experiment: Protein expression of antioxidant enzymes by Western blotting in H2O2-treated auditory cells; type: cell-based; conditions: pre-treated 1, 10, 25 and 50 μM for 1 hour, 250 μM H2O2 for 24 hours
Method: as §1

HEI-OC1 cells [4] = experiment: Cytotoxicity of sarpogrelate by WST-1 analysis; type: cell-based; conditions: 0.1, 1, 10 and 25 μM for 24 hours
Method: (§2) Auditory cell (HEI-OC1; House-Ear Institute-organ of Corti 1) lines expressing auditory genes were used, and the HEI-OC1 cells were cultured at 33° C. and under 10% CO2 in DMEM medium (Dulbecco's modified Eagle's Medium) containing a high concentration of glutamine, supplemented with 10% fetal bovine serum (FBS) and 25 U/ml of interferon gamma.

[5] = tested on: peripheral arterial occlusion; conditions: rat, injection of lauric acid; cited from earlier work
HEI-OC1 cells [6] = experiment: Cytotoxicity and apoptosis caused by H2O2, WST-1 analysis; type: cell-based; conditions: pretreatment 0.1, 1, 10 and 25 μM for 1 hour, then 500 μM H2O2 for 24 hours
Method: as §2, with “gamma. A noise-induced hearing loss cell line was established through treatment with H2O2 to produce reactive oxygen species (ROS) by oxidative stress during induction of hearing loss by noise.” for “gamma.”

[7] = tested on: rat vascular smooth muscles; conditions: in vitro; cited from earlier work

SMILES: COc1cccc(CCc2ccccc2OCC(CN(C)C)OC(=O)CCC(=O)O)c1 (stereo not drawn) [sarpogrelate, 4-[2-(dimethylamino)-1-({2-[2-(3-methoxyphenyl)ethyl]phenoxy}methyl)ethoxy]-4-oxobutanoic acid]
- platelet aggregation by collagen and secondary platelet aggregation by ADP or epinephrine (platelet aggregation): inhibited
- formation of thrombus in arterial thrombosis models (arterial thrombosis): inhibit the formation of thrombus
- mRNA expression of SOD2 (catalase and SOD2 [1]): increased
- mRNA expression of catalase (catalase and SOD2 [1]): increased
- expression of SOD2 (catalase and SOD2 [2]): significantly increased
- expression of catalase (catalase and SOD2 [2]): significantly increased
- protein expression of SOD2 (catalase and SOD2 [3]): increased
- protein expression of catalase (catalase and SOD2 [3]): increased
- cytotoxicity of sarpogrelate (HEI-OC1 cells [4]): not to cause cytotoxicity
- onset of the condition in the peripheral arterial occlusion model [5]: inhibits the onset of the condition
- apoptosis of auditory cells caused by H2O2 (HEI-OC1 cells [6]): inhibiting apoptosis
- contraction of vascular smooth muscles by serotonin [7]: inhibiting the contraction
